According to ChEMBL document CHEMBL1811755, “α-Tocotrienol quinone modulates oxidative stress response and the biochemistry of aging” (Bioorg Med Chem Lett, 2011):
Calls of active or inactive are those of the source. The calls are words filed in the database; no cut-off is given here.

How the values were obtained:
Fibroblast [1] = assay: Cytoprotectant activity against L-buthionine-(S,R)-sulfoximine-induced cell death in Friedreich ataxia patient fibroblasts assessed as increase of cell viability up to 1000 nM; format: functional, cell-based; settings: Homo sapiens
Fibroblast [2] = assay: Cytoprotectant activity against L-buthionine-(S,R)-sulfoximine-induced cell death in Leigh syndrome patient fibroblasts assessed as increase of cell viability up to 1000 nM; format: functional, cell-based; settings: Homo sapiens
Rattus norvegicus [3] = assay: In vivo metabolic stability in rat assessed as parent compound remaining at 5 mg/kg, iv; format: ADME, organism-based; design: dose 5 mg/kg, route intravenous
Rattus norvegicus [4] = assay: In vivo metabolic stability in rat assessed as parent compound remaining at 25 mg/kg, po; format: ADME, organism-based; design: dose 25 mg/kg, route oral
[5] = Cytoprotectant activity against L-buthionine-(S,R)-sulfoximine-induced cell death in Friedreich ataxia patient fibroblasts assessed as increase of cell viability; format: functional, cell-based; settings: Homo sapiens, Fibroblast
[6] = AUCt in rat plasma at 2 mg/kg, iv; format: ADME, organism-based; design: dose 2 mg/kg, route intravenous
Plasma [7] = assay: AUC (infinity) in rat plasma at 2 mg/kg, iv; format: ADME, organism-based; design: time infinity, dose 2 mg/kg, route intravenous; settings: in vivo
[8] = Terminal half life in rat plasma at 2 mg/kg, iv; format: ADME, organism-based; design: dose 2 mg/kg, route intravenous; settings: read-out: beta t1/2 (converted)
Plasma [9] = assay: Volume of infusion in rat plasma at 2 mg/kg, iv; format: ADME, organism-based; design: dose 2 mg/kg, route intravenous; settings: in vivo
[10] = Volume of distribution at steady state in rat plasma at 2 mg/kg, iv; format: ADME, organism-based; design: dose 2 mg/kg, route intravenous; settings: read-out: Vdss
[11] = Apparent volume of distribution in rat plasma at 2 mg/kg, iv; format: ADME, organism-based; design: dose 2 mg/kg, route intravenous; settings: read-out: Vz
[12] = Cmax in rat plasma at 25 mg/kg, po; format: ADME, organism-based; design: dose 25 mg/kg, route oral
[13] = Tmax in rat plasma at 25 mg/kg, po; format: ADME, organism-based; design: dose 25 mg/kg, route oral
[14] = AUCt in rat plasma at 25 mg/kg, po; format: ADME, organism-based; design: dose 25 mg/kg, route oral
[15] = Bioavailability in fasted rat plasma at 25 mg/kg, po; format: ADME, organism-based
[16] = Cmax in rat plasma at 10 mg/kg, po; format: ADME, organism-based; design: dose 10 mg/kg, route oral
[17] = Tmax in rat plasma at 10 mg/kg, po; format: ADME, organism-based; design: dose 10 mg/kg, route oral
[18] = AUCt in rat plasma at 10 mg/kg, po; format: ADME, organism-based; design: dose 10 mg/kg, route oral
[19] = AUC (infinity) in rat plasma at 10 mg/kg, po; format: ADME, organism-based; design: time infinity, dose 10 mg/kg, route oral
[20] = Terminal half life in rat plasma at 10 mg/kg, po; format: ADME, organism-based; design: dose 10 mg/kg, route oral; settings: read-out: beta t1/2 (converted)
[21] = Bioavailability in fed rat plasma at 10 mg/kg, po; format: ADME, organism-based
[22] = AUCt in dog plasma at 2 mg/kg, iv; format: ADME, organism-based, Canis lupus familiaris; design: dose 2 mg/kg, route intravenous
[23] = AUC (infinity) in dog plasma at 2 mg/kg, iv; format: ADME, organism-based, Canis lupus familiaris; design: dose 2 mg/kg, route intravenous, time infinity
[24] = Terminal half life in dog plasma at 2 mg/kg, iv; format: ADME, organism-based, Canis lupus familiaris; design: dose 2 mg/kg, route intravenous; settings: read-out: beta t1/2 (converted)
[25] = Clearance in dog plasma at 2 mg/kg, iv; format: ADME, organism-based, Canis lupus familiaris; design: dose 2 mg/kg, route intravenous
Plasma [26] = assay: Volume of infusion in dog plasma at 2 mg/kg, iv; format: ADME, organism-based, Canis lupus familiaris; design: dose 2 mg/kg, route intravenous; settings: in vivo
[27] = Volume of distribution at steady state in dog plasma at 2 mg/kg, iv; format: ADME, organism-based, Canis lupus familiaris; design: dose 2 mg/kg, route intravenous; settings: read-out: Vdss
[28] = Apparent volume of distribution in dog plasma at 2 mg/kg, iv; format: ADME, organism-based, Canis lupus familiaris; design: dose 2 mg/kg, route intravenous; settings: read-out: Vz
[29] = Cmax in dog plasma at 10 mg/kg, po; format: ADME, organism-based, Canis lupus familiaris; design: dose 10 mg/kg, route oral
[30] = Tmax in dog plasma at 10 mg/kg, po; format: ADME, organism-based, Canis lupus familiaris; design: dose 10 mg/kg, route oral
[31] = AUCt in dog plasma at 10 mg/kg, po; format: ADME, organism-based, Canis lupus familiaris; design: dose 10 mg/kg, route oral
[32] = AUC (infinity) in dog plasma at 10 mg/kg, po; format: ADME, organism-based, Canis lupus familiaris; design: time infinity, dose 10 mg/kg, route oral
[33] = Terminal half life in dog plasma at 10 mg/kg, po; format: ADME, organism-based, Canis lupus familiaris; design: dose 10 mg/kg, route oral; settings: read-out: beta t1/2 (converted)
[34] = Cmax in mouse plasma at 25 mg/kg, ip; format: ADME, organism-based; design: dose 25 mg/kg, route intraperitoneal
[35] = Tmax in mouse plasma at 25 mg/kg, ip; format: ADME, organism-based; design: dose 25 mg/kg, route intraperitoneal
[36] = AUCt in mouse plasma at 25 mg/kg, ip; format: ADME, organism-based; design: dose 25 mg/kg, route intraperitoneal
[37] = AUC (infinity) in mouse plasma at 25 mg/kg, ip; format: ADME, organism-based; design: time infinity, dose 25 mg/kg, route intraperitoneal
[38] = Terminal half life in mouse plasma at 25 mg/kg, ip; format: ADME, organism-based; design: dose 25 mg/kg, route intraperitoneal; settings: read-out: beta t1/2 (converted)
[39] = Cmax in mouse brain at 25 mg/kg, ip; format: ADME, organism-based; design: dose 25 mg/kg, route intraperitoneal
[40] = Tmax in mouse brain at 25 mg/kg, ip; format: ADME, organism-based; design: dose 25 mg/kg, route intraperitoneal
Brain [41] = assay: AUCt in mouse brain at 25 mg/kg, ip; format: ADME, organism-based; design: dose 25 mg/kg, route intraperitoneal; settings: in vivo
Brain [42] = assay: AUC (infinity) in mouse brain at 25 mg/kg, ip; format: ADME, organism-based; design: time infinity, dose 25 mg/kg, route intraperitoneal; settings: in vivo
[43] = Terminal half life in mouse brain at 25 mg/kg, ip; format: ADME, organism-based; design: dose 25 mg/kg, route intraperitoneal; settings: read-out: beta t1/2 (converted)
[44] = Cmax in human plasma at 2 mg/kg, po; format: ADME, organism-based; design: dose 2 mg/kg, route oral
[45] = Tmax in human plasma at 2 mg/kg, po; format: ADME, organism-based; design: dose 2 mg/kg, route oral
[46] = Bioavailability in dog plasma at 10 mg/kg, po; format: ADME, organism-based, Canis lupus familiaris
Serum = assay: Drug level in mouse serum at 25 mg/kg, ip; format: ADME, organism-based; design: dose 25 mg/kg, route intraperitoneal; settings: in vivo
Heart = assay: Drug level in mouse heart at 25 mg/kg, ip; format: ADME, organism-based; design: dose 25 mg/kg, route intraperitoneal; settings: in vivo
[47] = Drug level in dog retina at 300 mg/kg/day, po qd for 7 days; format: ADME, organism-based, Canis lupus familiaris; design: route oral; settings: read-out: Drug uptake
[48] = Drug level in dog cornea at 300 mg/kg/day, po qd for 7 days; format: ADME, organism-based, Canis lupus familiaris; design: route oral; settings: read-out: Drug uptake
[49] = Plasma concentration in dog at 300 mg/kg/day, po qd for 7 days; format: ADME, organism-based, Canis lupus familiaris; design: route oral
Salmonella typhimurium = assay: Mutagenic activity in Salmonella Typhimurium by Ames test; format: toxicity, organism-based; settings: salmonella enterica subsp. enterica serovar typhimurium
CHO = assay: Genotoxicity in CHO cells assessed as induction of micronucleus; format: toxicity, cell-based, Cricetulus griseus; settings: chinese hamster
[50] = Toxicity in dog administered orally once daily for 28 days; format: organism-based, Canis lupus familiaris; settings: in vivo, po
[51] = Toxicity in rat administered orally once daily for 28 days; format: organism-based; settings: in vivo, po
Rattus norvegicus [52] = assay: Prolongation of prothrombin time in rat at 100 mg/kg/day, po; format: functional, organism-based
Rattus norvegicus [53] = assay: Prolongation of activated partial thromboplastin time in rat at 100 mg/kg/day, po; format: functional, organism-based
Canis familiaris [54] = assay: Prolongation of prothrombin time in dog at 100 mg/kg/day, po; format: functional, organism-based; settings: Canis lupus familiaris
Canis familiaris [55] = assay: Prolongation of activated partial thromboplastin time in dog at 100 mg/kg/day, po; format: functional, organism-based; settings: Canis lupus familiaris
[56] = Cytoprotectant activity against L-buthionine-(S,R)-sulfoximine-induced cell death in Leigh syndrome patient fibroblasts assessed as increase of cell viability; format: functional, cell-based; settings: Homo sapiens, Fibroblast
Fibroblast [57] = assay: Ratio of compound EC50 to co-enzyme Q10 EC50 for cytoprotectant activity in Friedreich ataxia patient fibroblasts; format: functional, Homo sapiens
Fibroblast [58] = assay: Ratio of compound EC50 to idebenone EC50 for cytoprotectant activity in Friedreich ataxia patient fibroblasts; format: functional, Homo sapiens
Fibroblast [59] = assay: Ratio of compound EC50 to resveratrol EC50 for cytoprotectant activity in Friedreich ataxia patient fibroblasts; format: functional, Homo sapiens
Mus musculus [60] = assay: Ratio of drug level in mouse brain to serum at 25 mg/kg, ip
Mus musculus [61] = assay: Ratio of drug level in mouse heart to serum at 25 mg/kg, ip; settings: other tissue

## COC1=C(OC)C(=O)C(C/C=C(\C)CC/C=C(\C)CC/C=C(\C)CC/C=C(\C)CC/C=C(\C)CC/C=C(\C)CC/C=C(\C)CC/C=C(\C)CC/C=C(\C)CCC=C(C)C)=C(C)C1=O
Fibroblast [1]
  Activity: inactive
Fibroblast [2]
  Activity: inactive

## CC(C)=CCC/C(C)=C/CC/C(C)=C/CC[C@]1(C)CCc2c(C)c(O)c(C)c(C)c2O1 [ALPHA-TOCOTRIENOL]
Rattus norvegicus [3]
  Stability: 7%
Rattus norvegicus [4]
  Stability: 5%

## COC1=C(OC)C(=O)C(CCCCCCCCCCO)=C(C)C1=O [IDEBENONE]
[5]
  EC50: 850 nM

## Oc1ccc(/C=C/c2cc(O)cc(O)c2)cc1 [RESVERATROL]
[5]
  EC50: 1440 nM

## CC(C)=CCC/C(C)=C/CC/C(C)=C/CC[C@@](C)(O)CCC1=C(C)C(=O)C(C)=C(C)C1=O [VATIQUINONE]
[6]
  AUC(0-t): 984 ng·h/mL
Plasma [7]
  AUC: 1069 ng·h/mL
[8]
  half-life: 3.5 h
Plasma [9]
  Vi: 0.117 L/kg
[10]
  Vd: 0.222 L/kg
[11]
  Vd: 3.73 L/kg
[12]
  Cmax: 248 ng/mL
[13]
  Tmax: 4 h
[14]
  AUC(0-t): 961 ng·h/mL
[15]
  bioavailability: 4.1%
[16]
  Cmax: 931 ng/mL
[17]
  Tmax: 3.5 h
[18]
  AUC(0-t): 4730 ng·h/mL
[19]
  AUC(0-inf): 4780 ng·h/mL
[20]
  half-life: 3.5 h
[21]
  bioavailability: 89%
[22]
  AUC(0-t): 3410 ng·h/mL
[23]
  AUC(0-inf): 3570 ng·h/mL
[24]
  half-life: 7.5 h
[25]
  clearance: 9.57 mL/min/kg
Plasma [26]
  Vi: 0.095 L/kg
[27]
  Vd: 2.54 L/kg
[28]
  Vd: 6.25 L/kg
[29]
  Cmax: 442 ng/mL
[30]
  Tmax: 2.8 h
[31]
  AUC(0-t): 2690 ng·h/mL
[32]
  AUC(0-inf): 2820 ng·h/mL
[33]
  half-life: 7.6 h
[34]
  Cmax: 1190 ng/mL
[35]
  Tmax: 0.5 h
[36]
  AUC(0-t): 4840 ng·h/mL
[37]
  AUC(0-inf): 5860 ng·h/mL
[38]
  half-life: 7.6 h
[39]
  Cmax: 539 ng/g
[40]
  Tmax: 12 h
Brain [41]
  AUCt: 7738 ng·h/g
Brain [42]
  AUC: 10724 ng·h/g
[43]
  half-life: 12.4 h
[44]
  Cmax: 167 ng/mL
[45]
  Tmax: 2 h
[46]
  bioavailability: 17%
Serum
  Drug uptake: 300 ng/mL
Heart
  Drug uptake: 848 ng/g
[47]
  concentration at 168 h: 11200 ng/g
[48]
  concentration at 168 h: 755 ng/g
[49]
  concentration at 168 h: 10000 ng/mL
Salmonella typhimurium
  Activity: Non-toxic
CHO
  Activity: Non-toxic
[50]
  NOAEL at 672 h: 100 mg/kg
[51]
  NOAEL at 672 h: 100 mg/kg
Rattus norvegicus [52]
  Activity: Active
Rattus norvegicus [53]
  Activity: Active
Canis familiaris [54]
  Activity: Active
Canis familiaris [55]
  Activity: Active
[5]
  EC50: 24 nM
[56]
  EC50: 30 nM
Fibroblast [57]
  Ratio EC50: 100
Fibroblast [58]
  Ratio EC50: 100
Fibroblast [59]
  Ratio EC50: 100
Mus musculus [60]
  Ratio: 1.83 mL/g
Mus musculus [61]
  Ratio: 0.71 mL/g
